Here are results for two molecules from ChEMBL document CHEMBL3526031, “Mechanistic studies on the absorption and disposition of scutellarin in humans: selective OATP2B1-mediated hepatic uptake is a likely key determinant for its unique pharmacokinetic characteristics” (Drug Metab Dispos, 2012).

For series [1], the target named is T1, OATP2B1 (Homo sapiens, UniProt O94956).
T1 sequence (O94956 whole entry): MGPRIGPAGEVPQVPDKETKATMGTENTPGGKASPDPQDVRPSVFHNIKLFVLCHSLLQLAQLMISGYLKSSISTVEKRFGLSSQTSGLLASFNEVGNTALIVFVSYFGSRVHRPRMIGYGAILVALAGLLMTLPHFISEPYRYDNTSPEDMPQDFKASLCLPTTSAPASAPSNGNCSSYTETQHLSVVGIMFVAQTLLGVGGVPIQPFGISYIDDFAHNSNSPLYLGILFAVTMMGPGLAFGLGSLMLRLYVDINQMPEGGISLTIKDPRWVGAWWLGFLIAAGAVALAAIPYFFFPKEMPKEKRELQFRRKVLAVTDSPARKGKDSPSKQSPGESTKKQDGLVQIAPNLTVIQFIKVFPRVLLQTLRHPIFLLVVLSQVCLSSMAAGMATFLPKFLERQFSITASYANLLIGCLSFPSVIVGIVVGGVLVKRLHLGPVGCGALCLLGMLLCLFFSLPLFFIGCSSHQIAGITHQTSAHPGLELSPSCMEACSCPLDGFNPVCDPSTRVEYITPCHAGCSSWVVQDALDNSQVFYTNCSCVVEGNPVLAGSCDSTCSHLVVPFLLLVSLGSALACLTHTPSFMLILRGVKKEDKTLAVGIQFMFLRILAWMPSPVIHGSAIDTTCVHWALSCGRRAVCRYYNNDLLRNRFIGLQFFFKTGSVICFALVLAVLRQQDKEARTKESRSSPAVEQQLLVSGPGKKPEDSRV
The series is described as follows: Drug uptake assessed as OATP2B1 (unknown origin)-mediated drug transport expressed in HEK293 cells by LC-MS/MS analysis relative to control. It is filed as ADME, cell-based. To be noted: HEK293 cells expressing OATP2B1.

In series [2] the target is T2, Broad substrate specificity ATP-binding cassette transporter ABCG2 (Homo sapiens, UniProt Q9UNQ0).
T2 sequence (Q9UNQ0 whole entry): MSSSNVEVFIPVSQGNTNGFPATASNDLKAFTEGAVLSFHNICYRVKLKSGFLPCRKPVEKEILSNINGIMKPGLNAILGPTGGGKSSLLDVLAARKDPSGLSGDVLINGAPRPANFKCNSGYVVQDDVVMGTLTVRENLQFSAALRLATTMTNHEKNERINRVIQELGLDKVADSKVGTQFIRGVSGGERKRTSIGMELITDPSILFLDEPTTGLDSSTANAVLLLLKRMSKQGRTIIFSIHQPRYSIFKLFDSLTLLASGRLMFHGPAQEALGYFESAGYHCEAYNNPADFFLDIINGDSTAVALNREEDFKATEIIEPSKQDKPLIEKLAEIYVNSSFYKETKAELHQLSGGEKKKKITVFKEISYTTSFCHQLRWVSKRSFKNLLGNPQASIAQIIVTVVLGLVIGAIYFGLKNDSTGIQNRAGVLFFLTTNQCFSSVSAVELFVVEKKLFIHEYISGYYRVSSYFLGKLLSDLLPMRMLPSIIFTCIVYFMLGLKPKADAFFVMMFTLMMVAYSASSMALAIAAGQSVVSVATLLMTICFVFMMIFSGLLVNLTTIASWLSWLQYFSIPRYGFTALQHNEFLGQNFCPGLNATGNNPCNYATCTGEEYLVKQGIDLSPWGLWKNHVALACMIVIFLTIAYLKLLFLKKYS
Kind of series: Drug uptake assessed as human BCRP-mediated drug transport using inside-out membrane vesicles by measuring +ATP/-ATP ratio by LC-MS/MS analysis. It is filed as ADME.

The target of series [3] is T3, UDP-glucuronosyltransferase 1A10 (Homo sapiens, UniProt Q9HAW8).
T3 sequence (Q9HAW8 whole entry): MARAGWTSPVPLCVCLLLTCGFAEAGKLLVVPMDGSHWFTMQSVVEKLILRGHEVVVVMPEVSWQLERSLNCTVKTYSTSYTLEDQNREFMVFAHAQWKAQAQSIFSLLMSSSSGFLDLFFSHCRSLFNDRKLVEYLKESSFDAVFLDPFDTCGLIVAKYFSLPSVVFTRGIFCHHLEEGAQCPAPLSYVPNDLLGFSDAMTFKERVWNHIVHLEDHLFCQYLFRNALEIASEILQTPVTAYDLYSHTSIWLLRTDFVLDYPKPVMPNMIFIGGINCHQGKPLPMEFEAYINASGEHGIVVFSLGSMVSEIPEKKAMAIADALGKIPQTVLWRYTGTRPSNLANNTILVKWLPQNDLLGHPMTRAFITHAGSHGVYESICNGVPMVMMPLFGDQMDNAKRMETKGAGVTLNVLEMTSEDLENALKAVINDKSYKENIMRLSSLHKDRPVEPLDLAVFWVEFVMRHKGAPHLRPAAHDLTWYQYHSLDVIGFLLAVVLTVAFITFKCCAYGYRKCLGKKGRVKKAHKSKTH
Kind of series: Drug metabolism assessed as human recombinant UGT1A10-mediated formation of scutellarein-6,7-diglucuronide after 25 mins by HPLC/UV analysis. It is filed as ADME.

Series [4] deals with ATP-binding cassette sub-family C member 3 (Homo sapiens, UniProt O15438). Kind of series: Drug uptake assessed as human MRP3-mediated drug transport using inside-out membrane vesicles by measuring +ATP/-ATP ratio by LC-MS/MS analysis. It is filed as ADME.
ATP-binding cassette sub-family C member 3, sequence (O15438 whole entry): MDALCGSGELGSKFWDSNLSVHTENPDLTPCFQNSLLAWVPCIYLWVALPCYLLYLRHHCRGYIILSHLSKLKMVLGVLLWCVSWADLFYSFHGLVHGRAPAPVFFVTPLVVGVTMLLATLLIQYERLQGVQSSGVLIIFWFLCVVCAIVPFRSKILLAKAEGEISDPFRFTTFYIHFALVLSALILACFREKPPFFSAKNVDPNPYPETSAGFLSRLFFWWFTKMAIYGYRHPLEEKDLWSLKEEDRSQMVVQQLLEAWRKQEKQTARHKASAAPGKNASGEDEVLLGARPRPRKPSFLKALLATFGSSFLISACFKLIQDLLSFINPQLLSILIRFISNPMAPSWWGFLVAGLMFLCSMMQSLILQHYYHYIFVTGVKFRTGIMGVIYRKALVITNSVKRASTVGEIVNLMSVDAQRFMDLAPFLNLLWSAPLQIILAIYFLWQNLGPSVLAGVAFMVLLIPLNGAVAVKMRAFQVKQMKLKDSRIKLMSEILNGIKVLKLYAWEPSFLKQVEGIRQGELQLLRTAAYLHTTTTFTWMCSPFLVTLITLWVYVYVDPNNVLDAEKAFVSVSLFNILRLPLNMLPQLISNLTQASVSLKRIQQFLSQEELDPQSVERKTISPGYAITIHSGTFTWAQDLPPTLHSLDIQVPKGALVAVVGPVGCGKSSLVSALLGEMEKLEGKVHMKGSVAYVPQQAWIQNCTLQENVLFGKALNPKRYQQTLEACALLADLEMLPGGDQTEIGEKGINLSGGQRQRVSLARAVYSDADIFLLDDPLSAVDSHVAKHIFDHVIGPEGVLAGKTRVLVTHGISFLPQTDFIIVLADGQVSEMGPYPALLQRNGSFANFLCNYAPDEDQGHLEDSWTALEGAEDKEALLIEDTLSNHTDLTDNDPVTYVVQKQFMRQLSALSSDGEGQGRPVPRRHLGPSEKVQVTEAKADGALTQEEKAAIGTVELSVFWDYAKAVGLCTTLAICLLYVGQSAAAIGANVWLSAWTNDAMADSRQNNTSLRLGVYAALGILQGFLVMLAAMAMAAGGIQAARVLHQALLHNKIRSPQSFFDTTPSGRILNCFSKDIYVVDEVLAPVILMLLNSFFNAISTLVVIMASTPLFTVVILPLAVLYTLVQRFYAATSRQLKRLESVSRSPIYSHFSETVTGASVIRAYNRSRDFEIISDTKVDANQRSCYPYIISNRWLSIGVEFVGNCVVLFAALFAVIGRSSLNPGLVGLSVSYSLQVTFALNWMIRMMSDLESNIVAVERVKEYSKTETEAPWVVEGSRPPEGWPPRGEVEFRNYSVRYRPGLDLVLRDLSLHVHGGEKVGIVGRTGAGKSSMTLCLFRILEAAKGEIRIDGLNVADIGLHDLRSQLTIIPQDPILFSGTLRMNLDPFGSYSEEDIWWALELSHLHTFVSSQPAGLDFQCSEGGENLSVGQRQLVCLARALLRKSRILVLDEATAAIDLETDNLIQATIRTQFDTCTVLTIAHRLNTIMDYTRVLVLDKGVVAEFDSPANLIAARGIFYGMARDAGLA
Series [5] addresses T4, ATP-binding cassette sub-family C member 2 (Homo sapiens, UniProt Q92887). The series is described as follows: Drug uptake assessed as human MRP2-mediated drug transport using inside-out membrane vesicles by measuring +ATP/-ATP ratio by LC-MS/MS analysis. It is filed as ADME.
For series [6], the system named is Liver microsome. Kind of series: Ratio of Vmax to Km for drug metabolism in human liver microsomes assessed as formation of scutellarein-6,7-diglucuronide after 7 mins by HPLC/UV analysis. It is filed as ADME. (Liver microsomes are a subcellular fraction often used to study metabolism.)
In series [7] the target is T4, ATP-binding cassette sub-family C member 2. The series is described as follows: Inhibition of human MRP2-mediated estradiol-17beta-D-glucuronide formation using inside-out membrane vesicles by LC-MS/MS analysis.
Series [8] is described as follows: Drug metabolism in human intestinal microsomes assessed as formation of scutellarein-6,7-diglucuronide after 7 mins by HPLC/UV analysis. Particulars: for Km / Vmax: human, microsomes, 7 min; call rule not given here. It is filed as ADME, Intestine, Microsome.
Series [9] concerns the target Liver microsome. Kind of series: Drug metabolism in human liver microsomes assessed as formation of scutellarein-6,7-diglucuronide after 7 mins by HPLC/UV analysis. To be noted: for Km / Vmax: human, microsomes, 7 min. It is filed as ADME.
In series [10] the test system is Liver microsome. Kind of series: Ratio of Vmax to Km for drug metabolism in rat liver microsomes assessed as formation of scutellarein-6,7-diglucuronide after 7 mins by HPLC/UV analysis. It is filed as ADME.
Series [11] deals with T2, Broad substrate specificity ATP-binding cassette transporter ABCG2. The series is described as follows: Inhibition of human BCRP-mediated methotrexate transport using inside-out membrane vesicles by LC-MS/MS analysis. It is filed as ADME.
The nature of series [12]: Ratio of Vmax to Km for drug metabolism in rat intestinal microsomes assessed as formation of scutellarein-6,7-diglucuronide after 7 mins by HPLC/UV analysis. It is filed as ADME, Intestine, Microsome.
For series [13], the target named is ATP-dependent translocase ABCB1 (Homo sapiens, UniProt P08183). Kind of series: Inhibition of human MDR1-mediated N-methyl quinine formation using inside-out membrane vesicles by LC-MS/MS analysis. It is filed as ADME.
ATP-dependent translocase ABCB1, sequence (P08183 whole entry): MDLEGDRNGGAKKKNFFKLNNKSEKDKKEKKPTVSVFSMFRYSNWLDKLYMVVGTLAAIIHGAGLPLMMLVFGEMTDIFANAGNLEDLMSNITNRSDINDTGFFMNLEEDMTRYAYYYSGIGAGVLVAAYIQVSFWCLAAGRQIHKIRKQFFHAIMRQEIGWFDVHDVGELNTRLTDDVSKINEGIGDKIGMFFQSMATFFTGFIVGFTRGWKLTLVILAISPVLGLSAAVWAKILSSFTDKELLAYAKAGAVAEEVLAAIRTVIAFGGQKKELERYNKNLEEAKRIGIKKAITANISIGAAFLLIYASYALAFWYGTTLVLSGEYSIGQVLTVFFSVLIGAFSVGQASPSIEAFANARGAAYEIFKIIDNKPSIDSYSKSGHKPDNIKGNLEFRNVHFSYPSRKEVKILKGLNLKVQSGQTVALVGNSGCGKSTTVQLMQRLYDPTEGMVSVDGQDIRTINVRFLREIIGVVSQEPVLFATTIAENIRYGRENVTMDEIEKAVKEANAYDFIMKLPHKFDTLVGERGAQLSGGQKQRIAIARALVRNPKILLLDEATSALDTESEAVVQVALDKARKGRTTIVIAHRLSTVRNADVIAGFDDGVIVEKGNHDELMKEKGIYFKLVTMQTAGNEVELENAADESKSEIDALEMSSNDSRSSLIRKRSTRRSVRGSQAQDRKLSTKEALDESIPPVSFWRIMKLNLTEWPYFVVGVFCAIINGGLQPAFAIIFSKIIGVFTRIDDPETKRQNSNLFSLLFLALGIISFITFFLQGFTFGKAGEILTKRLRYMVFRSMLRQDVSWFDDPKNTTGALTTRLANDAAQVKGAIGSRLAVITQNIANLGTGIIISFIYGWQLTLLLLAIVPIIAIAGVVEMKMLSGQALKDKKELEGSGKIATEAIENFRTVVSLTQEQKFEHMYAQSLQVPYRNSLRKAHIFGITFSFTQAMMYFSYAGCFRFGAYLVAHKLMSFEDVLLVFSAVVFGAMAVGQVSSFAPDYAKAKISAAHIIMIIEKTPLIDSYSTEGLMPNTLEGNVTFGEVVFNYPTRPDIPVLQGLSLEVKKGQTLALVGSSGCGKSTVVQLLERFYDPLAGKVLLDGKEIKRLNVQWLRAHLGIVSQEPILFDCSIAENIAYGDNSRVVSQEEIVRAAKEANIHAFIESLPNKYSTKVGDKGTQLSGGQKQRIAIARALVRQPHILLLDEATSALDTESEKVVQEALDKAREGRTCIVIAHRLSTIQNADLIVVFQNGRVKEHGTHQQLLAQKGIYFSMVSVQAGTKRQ
Series [14] can be described thus: Drug metabolism in rat intestinal microsomes assessed as formation of scutellarein-6,7-diglucuronide after 7 mins by HPLC/UV analysis. It is filed as ADME, Intestine, Microsome. To be noted: for Km / Vmax: rat, microsomes, 7 min.
Series [15] in a line: Ratio of Vmax to Km for drug metabolism in human intestinal microsomes assessed as formation of scutellarein-6,7-diglucuronide after 7 mins by HPLC/UV analysis. It is filed as ADME, Intestine, Microsome.

T4 sequence (Q92887 whole entry): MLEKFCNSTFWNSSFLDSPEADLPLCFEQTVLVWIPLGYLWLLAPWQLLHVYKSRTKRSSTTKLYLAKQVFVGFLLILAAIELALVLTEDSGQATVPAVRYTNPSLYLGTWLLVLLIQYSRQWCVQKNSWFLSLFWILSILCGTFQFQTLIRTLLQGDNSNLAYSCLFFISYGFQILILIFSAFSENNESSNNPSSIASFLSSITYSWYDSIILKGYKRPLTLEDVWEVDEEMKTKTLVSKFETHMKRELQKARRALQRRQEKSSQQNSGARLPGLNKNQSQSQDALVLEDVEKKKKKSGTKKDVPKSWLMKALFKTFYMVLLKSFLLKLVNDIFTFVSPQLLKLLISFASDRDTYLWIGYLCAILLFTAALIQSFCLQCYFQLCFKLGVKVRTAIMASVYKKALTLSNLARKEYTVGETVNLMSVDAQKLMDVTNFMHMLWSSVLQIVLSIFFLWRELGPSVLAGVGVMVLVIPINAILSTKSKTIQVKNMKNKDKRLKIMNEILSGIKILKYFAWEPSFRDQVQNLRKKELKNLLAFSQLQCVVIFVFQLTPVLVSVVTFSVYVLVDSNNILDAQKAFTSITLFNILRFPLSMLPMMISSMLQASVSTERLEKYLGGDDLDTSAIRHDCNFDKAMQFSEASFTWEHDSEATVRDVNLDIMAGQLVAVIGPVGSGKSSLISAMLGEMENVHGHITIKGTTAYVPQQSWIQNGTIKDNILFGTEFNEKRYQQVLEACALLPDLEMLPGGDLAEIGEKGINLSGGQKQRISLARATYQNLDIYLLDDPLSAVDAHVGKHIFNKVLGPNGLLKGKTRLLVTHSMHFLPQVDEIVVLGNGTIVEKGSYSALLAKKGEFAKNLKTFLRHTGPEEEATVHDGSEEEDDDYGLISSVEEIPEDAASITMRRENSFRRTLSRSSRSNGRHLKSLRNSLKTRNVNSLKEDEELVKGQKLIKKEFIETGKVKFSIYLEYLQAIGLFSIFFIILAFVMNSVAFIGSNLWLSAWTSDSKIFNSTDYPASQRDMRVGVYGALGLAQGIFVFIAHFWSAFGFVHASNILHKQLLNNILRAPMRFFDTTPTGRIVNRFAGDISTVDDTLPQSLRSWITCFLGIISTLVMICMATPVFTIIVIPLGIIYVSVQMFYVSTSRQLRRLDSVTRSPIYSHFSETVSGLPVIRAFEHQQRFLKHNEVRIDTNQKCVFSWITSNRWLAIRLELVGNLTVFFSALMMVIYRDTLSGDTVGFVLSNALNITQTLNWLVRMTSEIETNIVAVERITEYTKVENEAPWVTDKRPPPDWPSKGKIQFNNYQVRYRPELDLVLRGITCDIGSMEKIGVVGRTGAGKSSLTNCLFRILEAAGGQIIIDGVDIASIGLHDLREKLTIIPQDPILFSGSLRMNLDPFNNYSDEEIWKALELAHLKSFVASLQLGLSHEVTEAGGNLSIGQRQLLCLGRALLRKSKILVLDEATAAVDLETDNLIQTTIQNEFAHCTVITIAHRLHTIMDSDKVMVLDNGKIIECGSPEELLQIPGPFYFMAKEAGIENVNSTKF

What is called Ki is the equilibrium dissociation constant of an inhibitor or competing ligand from its target. What is called IC50 is the concentration at which inhibition is half-maximal. A low value points to greater potency in that assay. In general, Km refers to the substrate concentration at which the rate is half of its maximum. A word on the Vmax: it is the rate approached at saturating substrate. Regarding `O=C(O)[C@H]1O[C@@H](Oc2cc3oc(-c4ccc(O)cc4)cc(=O)c3c(O)c2O)[C@H](O)[C@@H](O)[C@@H]1O` [SCUTELLARIN], in series [1], the uptake ratio was determined as 65. Further, the Ratio in series [2] is given as 57.5; in [4], 1.61; in series [5], 3.07. The inhibition constant Ki in series [3] was 208 µM; in series [8], 59.5 µM; in series [9], 133 µM; in series [14], 79 µM. For the same molecule, the Vmax/Km is 11.8 µL/min/mg in [6], 204 µL/min/mg in series [10], 18.9 µL/min/mg in [12] and 18.5 µL/min/mg in series [15]. The figures for the IC50 in series [7] and in series [11] were 75 µM and 10 µM, respectively. Besides, the Michaelis constant (Km) is 643 µM in series [8], 62.4 µM in series [9] and 349 µM in [14]. Also, the values for the Vmax in series [8], in series [9] and in [14] were 11.9 nmol/min/mg, 0.736 nmol/min/mg and 6.6 nmol/min/mg, respectively. Further, the “inhibition (INH)” value in series [13] is on record as “Active”.

As for `O=C(O)[C@H]1O[C@@H](Oc2c(O)cc3oc(-c4ccc(O)cc4)cc(=O)c3c2O)[C@H](O)[C@@H](O)[C@@H]1O`, the uptake ratio in [1] amounted to 20.4. Further, the Ratio in series [2] was found to be 57.5; in [4], 1.61; in series [5], 3.07. Further, the Ki amounted to 242 µM in series [3], 11.8 µM in series [8], 24 µM in series [9] and 79.2 µM in series [14]. Also, the maximum rate (Vmax) turned out to be 0.221 nmol/min/mg in series [3] (human, recombinant enzyme, 25 min); 17.1 nmol/min/mg in series [8]; 15.6 nmol/min/mg in series [9]; 1.23 nmol/min/mg in series [14]. Further, the Vmax/Km in series [6] is 127 µL/min/mg; in [10], 91.3 µL/min/mg; in [12] it was 30 µL/min/mg; in series [15], 110 µL/min/mg. Moreover, the IC50 in series [7] was 50 µM; in series [11], 20 µM. The Michaelis constant (Km) in [8] was found to be 156 µM; in series [9] it was 123 µM; in series [14] it was 41.1 µM. Also, the “inhibition (INH)” value in series [13] was “Active”.
